Each structure is given as a SMILES string.

The target in the first series is hROMK (human Kir1.1) (Homo sapiens (Human), UniProt P48048). Put plainly: Thallium Flux Assay (FluxOR, CHO T-Rex hROMK stable cell line). The class given is cell-based. As to conditions: CHO T-Rex hROMK cells, 10-point concentration response curve; read-out: Human ROMK TH Flux IC50.
hROMK (human Kir1.1), sequence (P48048 whole entry): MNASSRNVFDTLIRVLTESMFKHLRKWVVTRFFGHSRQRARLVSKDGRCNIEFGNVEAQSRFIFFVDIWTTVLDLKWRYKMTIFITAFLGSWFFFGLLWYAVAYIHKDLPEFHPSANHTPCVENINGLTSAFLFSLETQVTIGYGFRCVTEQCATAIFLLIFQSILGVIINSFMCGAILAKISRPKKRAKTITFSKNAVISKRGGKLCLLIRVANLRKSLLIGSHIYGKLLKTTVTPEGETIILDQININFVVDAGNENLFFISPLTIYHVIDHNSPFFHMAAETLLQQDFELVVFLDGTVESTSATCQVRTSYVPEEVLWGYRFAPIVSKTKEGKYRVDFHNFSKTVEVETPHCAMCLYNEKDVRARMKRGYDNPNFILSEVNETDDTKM
By IC50 is commonly meant the concentration that inhibits the measured activity by half. Turning to `Cc1ncn(-c2ncc(CNC[C@H](O)c3ccc4c(c3C)COC4=O)cn2)n1` [Example 123, (R)-5-(1-hydroxy-2-(((2-(3-methyl-1H-1,2,4-ttiazol-1-yl)pyrimidin-5-yl)methyl)amino)ethyl)-4-methylisobenzofuran-1(3H)-one], the IC50 was 210 nM.

For `Cc1c([C@@H](O)CNCc2ccc(-c3cnn(C)c3)nc2)ccc2c1COC2=O` [Example 124, (R)-5-(1-hydroxy-2-(((6-(1-methyl-1H-pyrazol-4-yl)pyridin-3-y)methyl)amino)ethyl)-4-methylisobenzofuran-1(3H)-one], the IC50 amounted to 260 nM.

For the compound `CCn1c(=O)oc2ccc(-n3cc(CNC[C@H](O)c4ccc5c(c4C)COC5=O)cn3)cc21` [Example 125, (R)-3-ethyl-5-(4-(((2-hydroxy-2-(4-methyl-1-oxo-1,3-dihydroisobenzofuran-5-yl)ethyl)amino)methyl)-1H-pyrazol-1-yl)benzo[d]oxazol-2(3H)-one], the IC50 amounted to 390 nM.

As to `Cc1c([C@@H](O)CNCc2c[nH]c(-c3ccc4oc(=O)n(C)c4c3)n2)ccc2c1COC2=O` [Example 126, (R)-5-(4-(((2-hydroxy-2-(4-methyl-1-oxo-1,3-dihydroisobenzofuran-5-yl)ethyl)amino)methyl)-1H-imidazol-2-yl)-3-methylbenzo[d]oxazol-2(3H)-one], the IC50 amounted to 580 nM.

For `Cc1nnn(-c2ccc(CNC[C@H](O)c3ccc4c(c3C)COC4=O)cn2)n1` [Example 127, (R)-5-(1-hydroxy-2-(((6-(5-methyl-2H-tetrazol-2-yl)pyridin-3-yl)methyl)amino)ethyl)-4-methylisobenzofuran-1(3H)-one], the IC50 was 420 nM.

`COc1cc(-c2ncc(CNC[C@H](O)c3ccc4c(c3C)COC4=O)s2)ncc1C#N` [Example 129, (R)-6-(5-(((2-hydroxy-2-(4-methyl-1-oxo-1,3-dihydroisobenzofuran-5-yl)ethyl)amino)methyl)thiazol-2-yl)-4-methoxynicotinonitrile]: the IC50 came to 8 nM.

In the case of `Cc1cn(-c2cnc(CNC[C@H](O)c3ccc4c(c3C)COC4=O)cn2)cn1` [Example 141, (R)-5-(1-hydroxy-2-(((5-(4-methyl-1H-imidazol-1-yl)pyrazin-2-yl)methyl)amino)ethyl)-4-methylisobenzofuran-1(3H)-one], the IC50 is 290 nM.

For `Cc1c([C@@H](O)CNCc2cnn(-c3cc(N4CCOC4=O)ccn3)c2)ccc2c1COC2=O` [Example 143, (R)-3-(2-(4-(((2-hydroxy-2-(4-methyl-1-oxo-1,3-dihydroisobenzofuran-5-yl)ethyl)amino)methyl)-1H-pyrazol-1-yl)pyridin-4-yl)oxazolidin-2-one], the IC50 worked out at 1000 nM.

Take `CNC(=O)O[C@@H](CNCc1cnn(-c2cc(C)c(C#N)cn2)c1)c1ccc2c(c1C)COC2=O` [Example 144, (R)-2-(((1-(5-cyano-4-methylpyridin-2-yl)-1H-pyrazol-4-yl)methyl)amino)-1-(4-methyl-1-oxo-1,3-dihydroisobenzofuran-5-yl)ethyl methylcarbamate]: the half-maximal inhibitory concentration (IC50) came to 140 nM.

Regarding `Cc1c([C@@H](O)CNCc2cnn(-c3ccc4oc(=O)n(C)c4n3)c2)ccc2c1COC2=O` [Example 145, (R)-5-(4-(((2-hydroxy-2-(4-methyl-1-oxo-1,3-dihydroisobenzofuran-5-yl)ethyl)amino)methyl)-1H-pyrazol-1-yl)-3-methyloxazolo[4,5-b]pyridin-2(3H)-one], the IC50 was determined as 130 nM.

`Cc1cn(-c2ncc(CNC[C@H](O)c3ccc4c(c3C)COC4=O)cn2)c(C2CC2)n1` [Example 153, (R)-5-(2-(((2-(2-cyclopropyl-4-methyl-1H-imidazol-1-yl)pyrimidin-5-yl)methyl)amino)-1-hydroxyethyl)-4-methylisobenzofuran-1(3H)-one]: the IC50 amounted to 520 nM.

Consider `Cc1c([C@@H](O)CNCc2ccc(-n3cc(C(N)=O)cn3)nc2)ccc2c1COC2=O` [Example 154, (R)-1-(5-(((2-hydroxy-2-(4-methyl-1-oxo-1,3-dihydroisobenzofuran-5-yl)ethyl)amino)methyl)pyridin-2-yl)-1H-pyrazole-4-carboxamide], for which the IC50 turned out to be 1000 nM.

Regarding `Cc1c([C@@H](O)CNCc2cnn(-c3cc(OC(C)C)c(C#N)cn3)c2)ccc2c1COC2=O` [Example 157, (R)-6-(4-(((2-hydroxy-2-(4-methyl-1-oxo-1,3-dihydroisobenzofuran-5-yl)ethyl)amino)methyl)-1H-pyrazol-1-yl)-4-isopropoxynicotinonitrile], the IC50 is 31 nM.

Regarding `Cc1c([C@@H](O)CNCc2cnn(-c3cccc(N4CCOC4=O)c3)c2)ccc2c1COC2=O` [Example 158, (R)-3-(3-(4-(((2-hydroxy-2-(4-methyl-1-oxo-1,3-dihydroisobenzofuran-5-yl)ethyl)amino)methyl)-1H-pyrazol-1-yl)phenyl)oxazolidin-2-one], the IC50 was determined as 390 nM.

As to `Cc1c([C@@H](O)CN(CCCC(F)(F)F)Cc2ccc(-c3ccc4oc(=O)n(C)c4c3)nc2)ccc2c1COC2=O` [Example 163, (R)-5-(5-(((2-hydroxy-2-(4-methyl-1-oxo-1,3-dihydroisobenzofuran-5-yl)ethyl)(4,4,4-trifluorobutyl)amino)meth-yl)pyridin-2-yl)-3-methylbenzo[d]oxazol-2(3H)-one], the IC50 came to 260 nM.

With `Cc1cc(-n2cc(CNC[C@H](O)c3ccc4c(c3C)COC4=O)cn2)cc(C)n1` [Example 164, (R)-5-(2-(((1-(2,6-dimethylpyridin-4-yl)-1H-pyrazol-4-yl)methyl)amino)-1-hydroxyethyl)-4-methylisobenzofuran-1(3H)-one], the IC50 turned out to be 280 nM.

On to `Cc1c([C@@H](O)CNCc2cnn(-c3cnccn3)c2)ccc2c1COC2=O` [Example 165, (R)-5-(1-hydroxy-2-(((1-(pyrazin-2-yl)-1H-pyrazol-4-yl)methyl)amino)ethyl)-4-methylisobenzofuran-1(3H)-one], for which the IC50 stood at 470 nM.

`Cc1c([C@@H](O)CNCc2cnn(-c3ccnc4c3ccn4C)c2)ccc2c1COC2=O` [Example 166, (R)-5-(1-hydroxy-2-(((1-(1-methyl-1H-pyrrolo[2,3-b]pyridin-4-yl)-1H-pyrazol-4-yl)methyl)amino)ethyl)-4-methylisobenzofuran-1(3H)-one]: the IC50 stood at 1300 nM.

In the case of `Cc1cc(-n2cc(CNC[C@H](O)c3ccc4c(c3C)COC4=O)c3ncccc32)ncc1C#N` [Example 168, (R)-6-(3-(((2-hydroxy-2-(4-methyl-1-oxo-1,3-dihydroisobenzofuran-5-yl)ethyl)amino)methyl)-1H-pyrrolo[3,2-b]pyridin-1-yl)-4-methylnicotinonitrile], the IC50 worked out at 120 nM.

As for `Cc1c([C@@H](O)CNCc2cnn(-c3ccc(-c4noc(=O)n4C)cn3)c2)ccc2c1COC2=O` [Example 171, (R)-3-(6-(4-(((2-hydroxy-2-(4-methyl-1-oxo-1,3-dihydroisobenzofuran-5-yl)ethyl)amino)methyl)-1H-pyrazol-1-yl)pyridin-3-yl)-4-methyl-1,2,4-oxadiazol-5(4H)-one], the IC50 was determined as 1000 nM.

As to `Cc1cc(-n2cc(CNC[C@@H](c3ccc4c(c3C)COC4=O)N(C)C)cn2)ncc1C#N` [Example 174, (R)-6-(4-(((2-(dimethylamino)-2-(4-methyl-1-oxo-1,3-dihydroisobenzofuran-5-yl)ethyl)amino)methyl)-1H-pyrazol-1-yl)-4-methylnicotinonitrile], the IC50 was determined as 11600 nM.

In the next series the target is hERG channels (Homo sapiens (Human), UniProt Q12809). Put plainly: hERG Manual Patch Clamp Assay (HEK 293 cells stably expressing hERG channels). The class given is cell-based. The note with it: human, HEK 293 cells stably expressing hERG channels, pH 7.4. Background: hERG is a cardiac potassium channel; its block is linked to QT prolongation.
hERG channels, sequence (Q12809 whole entry): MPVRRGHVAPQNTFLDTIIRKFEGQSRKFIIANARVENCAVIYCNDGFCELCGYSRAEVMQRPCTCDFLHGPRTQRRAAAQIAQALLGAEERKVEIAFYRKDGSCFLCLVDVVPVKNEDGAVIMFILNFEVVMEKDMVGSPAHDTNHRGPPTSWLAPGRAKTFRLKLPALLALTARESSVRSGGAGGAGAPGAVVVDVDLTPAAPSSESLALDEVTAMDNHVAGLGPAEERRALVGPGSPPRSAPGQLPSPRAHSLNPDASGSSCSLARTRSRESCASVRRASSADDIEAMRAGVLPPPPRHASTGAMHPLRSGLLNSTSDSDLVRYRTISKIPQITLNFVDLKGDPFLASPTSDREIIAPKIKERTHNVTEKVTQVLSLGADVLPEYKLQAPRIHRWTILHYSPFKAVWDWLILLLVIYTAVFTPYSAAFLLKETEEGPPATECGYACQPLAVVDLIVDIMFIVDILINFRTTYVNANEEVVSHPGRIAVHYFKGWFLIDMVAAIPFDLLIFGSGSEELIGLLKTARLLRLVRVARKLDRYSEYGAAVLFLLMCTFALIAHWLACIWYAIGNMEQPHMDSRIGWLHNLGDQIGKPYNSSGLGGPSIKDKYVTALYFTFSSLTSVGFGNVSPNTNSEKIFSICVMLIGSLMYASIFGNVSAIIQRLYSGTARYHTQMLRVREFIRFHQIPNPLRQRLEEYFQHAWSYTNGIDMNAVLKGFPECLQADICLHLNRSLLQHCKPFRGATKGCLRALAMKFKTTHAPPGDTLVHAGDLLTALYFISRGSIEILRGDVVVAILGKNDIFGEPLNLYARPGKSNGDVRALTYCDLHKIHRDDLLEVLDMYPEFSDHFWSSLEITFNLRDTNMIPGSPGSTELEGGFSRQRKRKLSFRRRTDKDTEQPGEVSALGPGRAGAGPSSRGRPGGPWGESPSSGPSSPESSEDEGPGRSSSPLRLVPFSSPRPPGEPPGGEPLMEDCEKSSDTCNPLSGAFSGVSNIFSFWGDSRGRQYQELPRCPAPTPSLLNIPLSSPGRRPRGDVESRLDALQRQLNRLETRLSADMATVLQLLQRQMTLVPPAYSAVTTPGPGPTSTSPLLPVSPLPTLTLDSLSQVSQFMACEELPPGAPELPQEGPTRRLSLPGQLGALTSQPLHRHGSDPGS
Usually inhibition stands for how much of the control response was suppressed. Lower therefore signals little suppression. In the case of `Cc1cc(-c2ccc(CNCC(O)c3ccc4c(c3C)COC4=O)cn2)ncc1C#N` (single isomer, unassigned) [Example 4-I, 5′-(((2-hydroxy-2-(4-methyl-1-oxo-1,3-dihydroisobenzofuran-5-yl)ethyl)amino)methyl)-4-methyl-[2,2′-bipyridine]-5-carbonitrile], the inhibition at 1 µM worked out at 22%.

Turning to `Cc1c(C(O)CN(C)Cc2ccc(-c3ccc(C#N)c(F)c3)nc2)ccc2c1COC2=O` (single isomer, unassigned) [Example 21-I, 2-fluoro-4-(5-(((2-hydroxy-2-(4-methyl-1-oxo-1,3-dihydroisobenzofuran-5-yl)ethyl)(methyl)amino)methyl)pyridin-2-yl)benzonitrile], the inhibition at 1 µM worked out at 68%.

`Cc1cc(-c2ccc(CN(C)CC(O)c3ccc4c(c3C)COC4=O)cn2)ncc1C#N` (single isomer, unassigned) [Example 22-I, 5′-(((2-hydroxy-2-(4-methyl-1-oxo-1,3-dihydroisobenzofuran-5-yl)ethyl)(methyl)amino)methyl)-4-methyl-[2,2′-bipyridine]-5-carbonitrile]: at 1 µM the inhibition was 9.5%.

Compound `Cc1c(C(O)CNCc2ccc(-c3ccc(C#N)c(F)c3)nc2)ccc2c1COC2=O` (stereo not shown) [Example 3-I, 2-fluoro-4-(5-(((2-hydroxy-2-(4-methyl-1-oxo-1,3-dihydroisobenzofuran-5-yl)ethyl)amino)methyl)pyridin-2-yl)benzonitrile] gave an inhibition at 1 µM of 66%.

`Cc1c([C@@H](O)CNCc2cnn(-c3ccc4oc(=O)n(C)c4c3)c2)ccc2c1COC2=O` [Example 81, (R)-5-(4-(((2-hydroxy-2-(4-methyl-1-oxo-1,3-dihydroisobenzofuran-5-yl)ethyl)amino)methyl)-1H-pyrazol-1-yl)-3-methylbenzo[d]oxazol-2(3H)-one] returned an inhibition at 1 µM of 6%.

Compound `CCOC(=O)c1nn(-c2cc(C)c(C#N)cn2)cc1CNC[C@H](O)c1ccc2c(c1C)COC2=O` [Example 98, ethyl (R)-1-(5-cyano-4-methylpyridin-2-yl)-4-(((2-hydroxy-2-(4-methyl-1-oxo-1,3-dihydroisobenzofuran-5-yl)ethyl)amino)methyl)-1H-pyrazole-3-carboxylate] came in with an inhibition at 1 µM of 54%.

`Cc1c([C@@H](O)CNCc2ccc(-n3cc(C#N)c(C4CC4)n3)nc2)ccc2c1COC2=O` [Example 116, (R)-3-cyclopropyl-1-(5-(((2-hydroxy-2-(4-methyl-1-oxo-1,3-dihydroisobenzofuran-5-yl)ethyl)amino)methyl)pyridin-2-yl)-1H-pyrazole-4-carbonitrile]: 1 µM produced 76% inhibition.
